Measurements taken from PMC5218480 (PLoS ONE, 2017).

Test system: MV-4-11 cells
Test: Gene expression microarray analysis (Affymetrix PrimeView) and GSEA
Type: cell-based, human
Set-up: RFU PODN (11730768_x_at) / Fold change /veh PODN (11730768_x_at) / RFU LINC00158 (11744669_a_at) / Fold change /veh LINC00158 (11744669_a_at) / RFU DUSP10 (11751237_a_at) / Fold change /veh DUSP10 (11751237_a_at) / RFU ID3 (11757404_x_at) / Fold change /veh ID3 (11757404_x_at) / RFU PLEKHG5 (11737974_s_at) / Fold change /veh PLEKHG5 (11737974_s_at) / RFU LRRC4B (11730491_at) / Fold change /veh LRRC4B (11730491_at) / RFU GIMAP4 (11747438_a_at) / Fold change /veh GIMAP4 (11747438_a_at) / RFU KRT8 (11758183_x_at) / Fold change /veh KRT8 (11758183_x_at) / RFU CNN1 (11734310_a_at) / Fold change /veh CNN1 (11734310_a_at) / RFU VPS37D (11726825_at) / Fold change /veh VPS37D (11726825_at) / RFU C10orf10 (11716522_x_at) / Fold change /veh C10orf10 (11716522_x_at) / RFU KIR2DL2 /// KIR2DL4 /// KIR2DL5A /// KIR2DL5B /// KIR2DS1 /// KIR2DS2 /// KIR2DS3 /// KIR2DS4 /// KIR3DL3 /// KIR3DL3 /// KIR3DS1 (11738374_at) / Fold change /veh KIR2DL2 /// KIR2DL4 /// KIR2DL5A /// KIR2DL5B /// KIR2DS1 /// KIR2DS2 /// KIR2DS3 /// KIR2DS4 /// KIR3DL3 /// KIR3DL3 /// KIR3DS1 (11738374_at) / RFU C1QL1 (11718748_at) / Fold change /veh C1QL1 (11718748_at) / RFU TMPRSS4 (11747572_a_at) / Fold change /veh TMPRSS4 (11747572_a_at) / RFU HAMP (11756126_x_at) / Fold change /veh HAMP (11756126_x_at) / RFU RNFT2 (11725882_a_at) / Fold change /veh RNFT2 (11725882_a_at) / RFU NR4A2 (11747474_a_at) / Fold change /veh NR4A2 (11747474_a_at) / RFU ABCC12 (11746883_a_at) / Fold change /veh ABCC12 (11746883_a_at) / RFU TMEM136 (11760407_x_at) / Fold change /veh TMEM136 (11760407_x_at) / RFU CLDN22 /// WWC2 (11732394_at) / Fold change /veh CLDN22 /// WWC2 (11732394_at) / RFU HLA-DPB1 (11760878_x_at) / Fold change /veh HLA-DPB1 (11760878_x_at) / RFU SPINT1 (11716480_a_at) / Fold change /veh SPINT1 (11716480_a_at) / RFU GAP43 (11754022_s_at) / Fold change /veh GAP43 (11754022_s_at) / RFU A4GNT (11735810_at) / Fold change /veh A4GNT (11735810_at) / RFU PRB3 (11715151_x_at) / Fold change /veh PRB3 (11715151_x_at) / RFU TUBB4B (11761932_at) / Fold change /veh TUBB4B (11761932_at) / RFU CAPN14 (11732068_a_at) / Fold change /veh CAPN14 (11732068_a_at) / RFU TMCC2 (11721928_a_at) / Fold change /veh TMCC2 (11721928_a_at) / RFU IRGQ (11745062_a_at) / Fold change /veh IRGQ (11745062_a_at) / RFU FAM174B (11720279_a_at) / Fold change /veh FAM174B (11720279_a_at) / RFU TMPRSS4 (11748680_a_at) / Fold change /veh TMPRSS4 (11748680_a_at) / RFU FAM212B (11763350_a_at) / Fold change /veh FAM212B (11763350_a_at) / RFU PLEKHG5 (11743358_a_at) / Fold change /veh PLEKHG5 (11743358_a_at) / RFU ZSCAN30 (11745921_a_at) / Fold change /veh ZSCAN30 (11745921_a_at) / RFU CMKLR1 (11741424_a_at) / Fold change /veh CMKLR1 (11741424_a_at) / RFU LOC101060620 /// MAPK8IP1 (11723275_at) / Fold change /veh LOC101060620 /// MAPK8IP1 (11723275_at) / RFU SPTSSB (11747773_x_at) / Fold change /veh SPTSSB (11747773_x_at) / RFU PRSS12 (11739890_at) / Fold change /veh PRSS12 (11739890_at) / RFU BIN1 (11741810_x_at) / Fold change /veh BIN1 (11741810_x_at) / RFU WNT11 (11732464_a_at) / Fold change /veh WNT11 (11732464_a_at) / RFU C10orf10 (11716521_a_at) / Fold change /veh C10orf10 (11716521_a_at) / RFU C5orf56 (11738089_at) / Fold change /veh C5orf56 (11738089_at) / RFU CYB561 (11721691_x_at) / Fold change /veh CYB561 (11721691_x_at) / RFU ANKRD19P (11752326_a_at) / Fold change /veh ANKRD19P (11752326_a_at) / RFU OR2T12 /// OR2T33 /// OR2T8 (11738714_s_at) / Fold change /veh OR2T12 /// OR2T33 /// OR2T8 (11738714_s_at) / RFU VCAN (11748164_a_at) / Fold change /veh VCAN (11748164_a_at) / RFU JSRP1 (11732532_at) / Fold change /veh JSRP1 (11732532_at) / RFU KRTAP10-11 (11738290_x_at) / Fold change /veh KRTAP10-11 (11738290_x_at) / RFU MYO3A (11730013_a_at) / Fold change /veh MYO3A (11730013_a_at) / RFU EBF3 (11725865_a_at) / Fold change /veh EBF3 (11725865_a_at) / RFU CAMK2N1 (11719241_x_at) / Fold change /veh CAMK2N1 (11719241_x_at) / RFU C5orf56 (11738088_a_at) / Fold change /veh C5orf56 (11738088_a_at) / RFU OLFML3 (11715873_a_at) / Fold change /veh OLFML3 (11715873_a_at) / RFU LOC100653217 /// NTM (11731650_a_at) / Fold change /veh LOC100653217 /// NTM (11731650_a_at) / RFU MAPK11 (11762145_a_at) / Fold change /veh MAPK11 (11762145_a_at) / RFU FIZ1 (11724087_x_at) / Fold change /veh FIZ1 (11724087_x_at) / RFU OASL (11726364_x_at) / Fold change /veh OASL (11726364_x_at) / RFU SOX15 (11748057_x_at) / Fold change /veh SOX15 (11748057_x_at) / RFU CD79A (11719716_a_at) / Fold change /veh CD79A (11719716_a_at) / RFU HIST1H1D (11736915_at) / Fold change /veh HIST1H1D (11736915_at) / RFU CASKIN2 (11723855_a_at) / Fold change /veh CASKIN2 (11723855_a_at) / RFU LOC730098 (11760151_x_at) / Fold change /veh LOC730098 (11760151_x_at) / RFU OR4N2 (11742367_at) / Fold change /veh OR4N2 (11742367_at) / RFU PRRT2 (11749266_a_at) / Fold change /veh PRRT2 (11749266_a_at) / RFU SNX32 (11753110_a_at) / Fold change /veh SNX32 (11753110_a_at) / RFU CDHR5 (11726645_a_at) / Fold change /veh CDHR5 (11726645_a_at) / RFU RCAN1 (11760418_a_at) / Fold change /veh RCAN1 (11760418_a_at) / RFU FAM167A (11723789_a_at) / Fold change /veh FAM167A (11723789_a_at) / RFU FAM26E (11764081_at) / Fold change /veh FAM26E (11764081_at) / RFU ISYNA1 (11749810_s_at) / Fold change /veh ISYNA1 (11749810_s_at) / RFU ACY1 (11761880_at) / Fold change /veh ACY1 (11761880_at) / RFU 11764098_at / Fold change /veh 11764098_at / RFU SAMD14 (11745864_x_at) / Fold change /veh SAMD14 (11745864_x_at) / RFU NPB (11741838_a_at) / Fold change /veh NPB (11741838_a_at) / RFU TMPRSS6 (11731388_a_at) / Fold change /veh TMPRSS6 (11731388_a_at) / RFU KRTAP10-2 (11738614_at) / Fold change /veh KRTAP10-2 (11738614_at) / RFU ARHGAP8 /// PRR5-ARHGAP8 (11727945_x_at) / Fold change /veh ARHGAP8 /// PRR5-ARHGAP8 (11727945_x_at) / RFU KRTAP5-7 /// NADSYN1 (11734609_at) / Fold change /veh KRTAP5-7 /// NADSYN1 (11734609_at) / RFU RASL12 (11751679_a_at) / Fold change /veh RASL12 (11751679_a_at) / RFU CDKN2B (11736163_a_at) / Fold change /veh CDKN2B (11736163_a_at) / RFU PRF1 (11729649_at) / Fold change /veh PRF1 (11729649_at) / RFU, ZNF638 /// ZNF638-IT1 / Fold change vs veh, ZNF638 /// ZNF638-IT1 / RFU, PANK3 / Fold change vs veh, PANK3 / RFU, SH3YL1 / Fold change vs veh, SH3YL1 / RFU, ZEB2 / Fold change vs veh, ZEB2 / RFU, NRIP1 / Fold change vs veh, NRIP1 / RFU, PTTG1IP / Fold change vs veh, PTTG1IP / RFU, CAPN2 / Fold change vs veh, CAPN2 / RFU, MED14 / Fold change vs veh, MED14 / RFU, SNORA58 / Fold change vs veh, SNORA58 / RFU, C1orf63 / Fold change vs veh, C1orf63 / RFU, LRRFIP1 / Fold change vs veh, LRRFIP1 / RFU, NDUFAF7 / Fold change vs veh, NDUFAF7 / RFU, SLC12A2 / Fold change vs veh, SLC12A2 / RFU, IBTK / Fold change vs veh, IBTK / RFU, ESF1 / Fold change vs veh, ESF1 / Fold change vs veh, TMEM50B / RFU, TAOK1 / Fold change vs veh, TAOK1 / RFU, ACBD3 / Fold change vs veh, ACBD3 / RFU, TMA16 / Fold change vs veh, TMA16 / RFU, RWDD3 / Fold change vs veh, RWDD3 / RFU, BCAT1 / Fold change vs veh, BCAT1 / RFU, EDEM3 / Fold change vs veh, EDEM3 / RFU, TMEM33 / Fold change vs veh, TMEM33 / RFU, WDR75 / Fold change vs veh, WDR75 / RFU, AHCTF1 / Fold change vs veh, AHCTF1 / RFU, TFRC / Fold change vs veh, TFRC / RFU, ZDHHC17 / Fold change vs veh, ZDHHC17 / RFU, NOM1 / Fold change vs veh, NOM1 / RFU, ARL8B / Fold change vs veh, ARL8B / RFU, ZBTB11 / Fold change vs veh, ZBTB11 / RFU, TAMM41 / Fold change vs veh, TAMM41 / RFU, KIAA1704 /// LOC100996395 / Fold change vs veh, KIAA1704 /// LOC100996395 / RFU, ING1 / Fold change vs veh, ING1 / RFU, TRMT61B / Fold change vs veh, TRMT61B / RFU, FUBP3 / Fold change vs veh, FUBP3 / RFU, TP53 / Fold change vs veh, TP53 / RFU, TNKS2 / Fold change vs veh, TNKS2 / RFU, ZFP14 / Fold change vs veh, ZFP14 / RFU, ACTR2 / Fold change vs veh, ACTR2 / RFU, PPP3R1 / Fold change vs veh, PPP3R1 / RFU, PIK3R1 / Fold change vs veh, PIK3R1 / RFU, HNRNPA1 / Fold change vs veh, HNRNPA1 / RFU, RNF170 / Fold change vs veh, RNF170 / RFU, ZNF28 / Fold change vs veh, ZNF28 / RFU, RNGTT / Fold change vs veh, RNGTT / RFU, OGT / Fold change vs veh, OGT / RFU, BRD1 / Fold change vs veh, BRD1 / RFU, MARS / Fold change vs veh, MARS / RFU, ZNF655 / Fold change vs veh, ZNF655 / RFU, FAHD1 / Fold change vs veh, FAHD1 / RFU, BDP1 / Fold change vs veh, BDP1 / RFU, LRRCC1 / Fold change vs veh, LRRCC1 / RFU, ARID1A / Fold change vs veh, ARID1A / RFU, ZNF146 / Fold change vs veh, ZNF146 / RFU, ZNF330 / Fold change vs veh, ZNF330 / RFU, GPN3 / Fold change vs veh, GPN3 / RFU, C9orf123 / Fold change vs veh, C9orf123 / RFU, N4BP2L2 / Fold change vs veh, N4BP2L2 / RFU, ARFIP1 / Fold change vs veh, ARFIP1 / RFU, FAM179B / Fold change vs veh, FAM179B / RFU, BCL10 / Fold change vs veh, BCL10 / RFU, UHRF1BP1L / Fold change vs veh, UHRF1BP1L / RFU, BET1 / Fold change vs veh, BET1 / RFU, CNOT2 / Fold change vs veh, CNOT2 / RFU, ZNF268 / Fold change vs veh, ZNF268 / Fold change vs veh, ZNF507 / RFU, DGCR2 / Fold change vs veh, DGCR2 / RFU, WDSUB1 / Fold change vs veh, WDSUB1 / Fold change vs veh, HSP90B1 /// MIR3652 / RFU, ADSS / Fold change vs veh, ADSS / RFU, GK / Fold change vs veh, GK / RFU, ZNF148 / Fold change vs veh, ZNF148 / RFU, TAF9 / Fold change vs veh, TAF9 / RFU, SLC1A5 / Fold change vs veh, SLC1A5 / RFU, SLMO2 / Fold change vs veh, SLMO2 / RFU, ABCC4 / Fold change vs veh, ABCC4 / RFU, LOC101060439 /// RAP1B / Fold change vs veh, LOC101060439 /// RAP1B / RFU, RFX7 / Fold change vs veh, RFX7 / RFU, GTPBP10 / Fold change vs veh, GTPBP10 / RFU, CNEP1R1 / Fold change vs veh, CNEP1R1 / RFU, BIVM-ERCC5 /// ERCC5 / Fold change vs veh, BIVM-ERCC5 /// ERCC5 / RFU, ILF3 / Fold change vs veh, ILF3 / RFU 11762660_at / Fold change /veh 11762660_at / RFU VCAN (11757783_s_at) / Fold change /veh VCAN (11757783_s_at) / RFU DDX43 (11728927_at) / Fold change /veh DDX43 (11728927_at) / RFU KRT8 (11758188_x_at) / Fold change /veh KRT8 (11758188_x_at) / RFU NKD1 (11759106_at) / Fold change /veh NKD1 (11759106_at) / RFU SRD5A1 (11742802_a_at) / Fold change /veh SRD5A1 (11742802_a_at) / RFU TPSAB1 /// TPSB2 (11721975_s_at) / Fold change /veh TPSAB1 /// TPSB2 (11721975_s_at) / RFU GSTM3 (11746129_a_at) / Fold change /veh GSTM3 (11746129_a_at) / RFU IL23R (11737362_x_at) / Fold change /veh IL23R (11737362_x_at) / RFU TMEM51 (11727254_a_at) / Fold change /veh TMEM51 (11727254_a_at) / RFU PIWIL2 (11732686_x_at) / Fold change /veh PIWIL2 (11732686_x_at) / RFU ORM1 (11744905_x_at) / Fold change /veh ORM1 (11744905_x_at) / RFU CCDC152 (11743942_at) / Fold change /veh CCDC152 (11743942_at) / RFU ECM1 (11717891_a_at) / Fold change /veh ECM1 (11717891_a_at) / RFU IL23R (11748794_a_at) / Fold change /veh IL23R (11748794_a_at) / RFU TNFAIP8L3 (11732012_x_at) / Fold change /veh TNFAIP8L3 (11732012_x_at) / RFU MBOAT4 (11741988_at) / Fold change /veh MBOAT4 (11741988_at) / RFU 11764193_at / Fold change /veh 11764193_at / RFU TMEM53 (11763286_at) / Fold change /veh TMEM53 (11763286_at) / RFU MAGEB2 (11727129_at) / Fold change /veh MAGEB2 (11727129_at) / RFU TMEM200A (11744735_a_at) / Fold change /veh TMEM200A (11744735_a_at) / RFU CCDC152 (11751479_a_at) / Fold change /veh CCDC152 (11751479_a_at) / RFU FAM211A (11726209_a_at) / Fold change /veh FAM211A (11726209_a_at) / RFU RGS16 (11746705_a_at) / Fold change /veh RGS16 (11746705_a_at) / RFU VCAN (11755009_s_at) / Fold change /veh VCAN (11755009_s_at) / RFU RHOB (11743442_s_at) / Fold change /veh RHOB (11743442_s_at) / RFU RGS16 (11720943_a_at) / Fold change /veh RGS16 (11720943_a_at) / RFU RGS16 (11720944_at) / Fold change /veh RGS16 (11720944_at) / RFU, VPS4B / Fold change vs veh, VPS4B / RFU, CREB1 / Fold change vs veh, CREB1 / RFU, DNAJC13 / Fold change vs veh, DNAJC13 / RFU, GNAQ / Fold change vs veh, GNAQ / RFU, CDK5R1 / Fold change vs veh, CDK5R1 / RFU, ZRANB3 / Fold change vs veh, ZRANB3 / RFU, CUL4A / Fold change vs veh, CUL4A / RFU, CCNY / Fold change vs veh, CCNY / RFU, UFL1 / Fold change vs veh, UFL1 / RFU, COG3 / Fold change vs veh, COG3 / RFU, DIAPH2 / Fold change vs veh, DIAPH2 / RFU, SKA2 / Fold change vs veh, SKA2 / RFU, AFF3 / Fold change vs veh, AFF3 / RFU, LMF1 / Fold change vs veh, LMF1 / RFU, IPO11 / Fold change vs veh, IPO11 / RFU, DFFB / Fold change vs veh, DFFB / RFU, FOXP1 / Fold change vs veh, FOXP1 / RFU, CARD8 / Fold change vs veh, CARD8 / RFU, STRN3 / Fold change vs veh, STRN3 / RFU, ADK / Fold change vs veh, ADK / RFU, RASSF2 / Fold change vs veh, RASSF2 / RFU, WIPF1 / Fold change vs veh, WIPF1 / RFU, LARP1B / Fold change vs veh, LARP1B / RFU, RASA1 / Fold change vs veh, RASA1 / RFU, RB1 / Fold change vs veh, RB1 / RFU, PPFIA1 / Fold change vs veh, PPFIA1 / RFU, MAT2A / Fold change vs veh, MAT2A / RFU, CCT5 / Fold change vs veh, CCT5 / RFU, WDR92 / Fold change vs veh, WDR92 / RFU, CUX1 / Fold change vs veh, CUX1 / RFU, TTC7A / Fold change vs veh, TTC7A / RFU, TMEM135 / Fold change vs veh, TMEM135 / RFU, DEPTOR / Fold change vs veh, DEPTOR / RFU, CPM / Fold change vs veh, CPM / RFU, DNAJB6 / Fold change vs veh, DNAJB6 / RFU, CACNA2D3 / Fold change vs veh, CACNA2D3 / RFU, DTX4 / Fold change vs veh, DTX4 / RFU, TFCP2 / Fold change vs veh, TFCP2 / RFU, GMCL1 /// GMCL1P1 / Fold change vs veh, GMCL1 /// GMCL1P1 / RFU, AEBP2 / Fold change vs veh, AEBP2 / RFU, SNHG1 /// SNORD22 /// SNORD25 /// SNORD26 /// SNORD27 /// SNORD28 /// SNORD29 /// SNORD31 / Fold change vs veh, SNHG1 /// SNORD22 /// SNORD25 /// SNORD26 /// SNORD27 /// SNORD28 /// SNORD29 /// SNORD31 / Fold change (Aza/veh), C12orf56 (ProbeSet 11735607_a_at) / Fold change (ACY-1035/veh), C12orf56 (ProbeSet 11735607_a_at) / Fold change (Aza/veh), FGFR1OP (ProbeSet 11751329_s_at) / Fold change (ACY-1035/veh), FGFR1OP (ProbeSet 11751329_s_at) / Fold change (Aza/veh), VPS36 (ProbeSet 11739960_a_at) / Fold change (ACY-1035/veh), VPS36 (ProbeSet 11739960_a_at) / RFU SYPL1 (11715823_x_at) / Fold change /veh SYPL1 (11715823_x_at) / RFU IGFBP7 (11715501_s_at) / Fold change /veh IGFBP7 (11715501_s_at) / RFU REEP3 (11722064_at) / Fold change /veh REEP3 (11722064_at) / RFU IGLL1 (11728026_x_at) / Fold change /veh IGLL1 (11728026_x_at): dose or concentration left out as unconfirmed
Conditions: MV-4-11 cells, 48 hours

## Nc1ccc(-c2cccs2)cc1NC(=O)c1ccc2c(c1)cc(C1CC1)n2CCN1CCOCC1 [ACY-1035]
  Fold change /veh PRSS12 (11739890_at): 1.14
